Results taken from paper PMC4857598 (Nuclear medicine and biology, 2012).
Read-outs that look alike come from different tables or passages of the source. Each block holds one molecule with its values, some of them ahead of it.

Legend:
[1] = molecular target: T1, MMP2 (Homo sapiens, UniProt P08253); test: Ilomastat inhibition of MMP2 activity; type: biochemical; conditions: 910 μM ilomastat, MMP2 1.4 μg, 37 °C, 24 hours, HPLC of fragmented peptide
T1 sequence (P08253 110-660): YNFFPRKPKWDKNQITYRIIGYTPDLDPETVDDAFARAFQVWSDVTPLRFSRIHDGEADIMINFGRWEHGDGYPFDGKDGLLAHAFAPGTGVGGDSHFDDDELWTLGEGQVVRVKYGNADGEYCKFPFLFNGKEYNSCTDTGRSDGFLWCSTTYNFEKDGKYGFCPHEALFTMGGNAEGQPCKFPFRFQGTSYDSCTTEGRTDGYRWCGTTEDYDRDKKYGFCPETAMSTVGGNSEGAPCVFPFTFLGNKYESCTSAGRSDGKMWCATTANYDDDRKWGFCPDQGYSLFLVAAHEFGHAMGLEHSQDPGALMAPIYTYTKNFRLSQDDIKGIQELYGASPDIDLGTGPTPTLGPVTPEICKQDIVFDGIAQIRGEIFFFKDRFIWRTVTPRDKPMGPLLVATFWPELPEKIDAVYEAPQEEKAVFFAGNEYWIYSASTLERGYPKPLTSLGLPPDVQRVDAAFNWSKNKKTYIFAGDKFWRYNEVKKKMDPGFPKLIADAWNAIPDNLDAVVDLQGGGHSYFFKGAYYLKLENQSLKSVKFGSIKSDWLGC

[2] = test system: αvβ3; conditions: read-out: IC50 value; published pentapeptides; cited from earlier work
[3] = test system: αvβ3; conditions: read-out: IC50 value; published pentapeptides; cited from earlier work; remark: listed apart in the source
[4] = test system: Integrin αvβ3; conditions: read-out: IC50 value by cell adhesion; cited from earlier work
[5] = test system: Integrin αvβ3; conditions: read-out: IC50 value by fluorescence polarization; cited from earlier work

- inhibition of MMP2 cleavage of [64Cu]c(RGDfE)K(DOTA)PLGVRY [1]: inhibition of the peptide cleavage
Molecule: CNC(=O)[C@H](Cc1c[nH]c2ccccc12)NC(=O)[C@@H](CC(=O)NO)CC(C)C [ilomastat, N-[(2R)-2-(hydroxamidocarbonylmethyl)-4-methylpentanoyl]-L-tryptophan methylamide]

Molecule: c(rGDFV) (head to tail)
- IC50 [2]: 25000 ± 4000 nM

Molecule: c(RGDfK)
- IC50 [3]: 4.2 nM

Molecule: c(ERGDf) (head to tail)
- IC50 [4]: 3200 ± 160 nM
- IC50 [5]: 280 ± 4 nM
